According to patent publication US10544153B2, “Benzoic acid, benzoic acid derivatives and heteroaryl carboxylic acid conjugates of oxycodone, prodrugs, methods of making and use thereof” (KemPharm, Inc., priority 2014, dated 2020):

How the values were obtained:
[1] = Tamper resistance: percent of OC released under tampering conditions, LC-MS/MS; type: physicochemical; conditions: RT
Protocol: Effective abuse deterrent forms of drugs of abuse can also be resistant to chemical tampering. The prodrugs in the present technology also impart this characteristic. Several common tampering scenarios were employed and percent of OC released were determined by liquid chromatography with tandem mass spectrometry (LC-MS/MS). The results as shown in Table 7 indicated a very high degree of tamper resistance in the example OC prodrugs, releasing little to no OC.

[2] = Intranasal PK in rats: plasma concentrations of released oxymorphone by LC-MS/MS
[3] = Oral PK in rats: plasma concentrations of released oxycodone by LC-MS/MS
[4] = Intranasal PK in rats (Table 4); conditions: title: oxymorphone released (released oxycodone)
[5] = Oral PK in rats: plasma concentrations of oxymorphone by LC-MS/MS; conditions: oxymorphone released
[6] = Table 6, equivalent to 2 mg/kg freebase oxycodone
[7] = Table 6, relative to oxycodone (OC)
[8] = conjugate equivalent to 2 mg/kg freebase oxycodone
[9] = equivalent to 2 mg/kg freebase oxycodone

COc1ccc(C(=O)OC2=CC[C@@]3(O)[C@H]4Cc5ccc(OC)c6c5[C@@]3(CCN4C)[C@H]2O6)cc1 [Conjugate 4-MeO-Bz-OC]
percent of OC released ([1]; 1N HCl, 1 hour): <1% | percent of OC released ([1]; 5% Bicarbonate, 1 hour): <1% | percent of OC released ([1]; Water, 1 hour): 0% | percent of OC released ([1]; Water, 24 hours): <1% | AUC [2, 6]: 7.2 ng·h/mL | Cmax [2, 6]: 9.4 ng/mL | tmax [2, 6]: 22 min | %-AUC of OC [2, 7]: 65% | %-Cmax of OC [2, 7]: 60% | %-tmax of OC [2, 7]: 105% | AUC [3, 8]: 55.5 ng·h/mL | Cmax [3, 8]: 28.5 ng/mL | tmax [3, 8]: 15 min | %-AUC of OC ([3]; relative to oxycodone (OC)): 59% | %-Cmax of OC ([3]; relative to oxycodone (OC)): 61% | %-tmax of OC ([3]; relative to oxycodone (OC)): 33% | Cmax [4, 9]: 949.4 ng/mL | tmax [4, 9]: 4.98 min | %-Cmax of OC ([4]; relative to oxycodone (OC)): 48% | %-tmax of OC ([4]; relative to oxycodone (OC)): 100% | AUC [5, 8]: 6.7 ng·h/mL | Cmax [5, 8]: 4.7 ng/mL | tmax [5, 8]: 15 min | %-AUC of OC ([5]; relative to oxycodone (OC)): 51% | %-Cmax of OC ([5]; relative to oxycodone (OC)): 63% | %-tmax of OC ([5]; relative to oxycodone (OC)): 83%
